# Experimental data reported in patent publication US20100016435A1, “HYBRID MOLECULES HAVING MIXED VITAMIN D RECEPTOR AGONISM AND HISTONE DEACETYLASE INHIBITORY PROPERTIES” (McGill University, priority 2006, published 2010).
# How the values were obtained:
# [1] = tested on: histone H4; experiment: Histone H4 acetylation, Western blot; format: cell-based, human; details: SCC4 cells, 6 h
# Source text: (§1) FIG. 4 is an illustration of the HDAC inhibitory activity of 3 in the SCC4 cell line. FIG. 4A is an illustration of a western blot of nuclear and cytoplasmic extracts of SCC4 cells treated with vehicle (−), 1, or 3 alone or in combination, as indicated. The 55 kDa band corresponds to the molecular weight of tubulin. FIG. 4B illustrates a western blot probed with an antibody directed against acetylated histone H4 (AcH4) showing the effects of the treatments described in A on acetylation of histone H4. FIG. 4C illustrates western blots of the effects of treatments described in A on levels of total alpha-tubulin (left) and acetylated alpha-tubulin (right).
# (§2) In preliminary experiments, TSA-inducible protein acetylation was analyzed in nuclear and cytoplasmic extracts of SCC4 cells treated for 6 h with 1, 3, or 1 and 3 and subsequently probed by Western blotting for protein acetylation using an anti-acetyllysine antibody. […] Effects of 3 on histone acetylation specifically, were confirmed by probing for acetylation of histone H4 (FIG. 4B). […] However, it was not clear whether this corresponded to enhanced expression or acetylation. […] This was confirmed by probing cytoplasmic fractions with an antibody that recognized α-tubulin (FIG. 4C). Calcitriol (1) had no effect on the acetylation of α-tubulin, and none of the treatments had any substantial effect on total α-tubulin expression (FIG. 4C).
# [2] = tested on: α-tubulin; experiment: α-Tubulin acetylation in SCC4 cells, Western blot; format: cell-based, human; details: for levels of acetylated alpha-tubulin normalized for total alpha-tubulin: 3 15 nM, 36 or 39 10^−6 or 10^−7M, 6 h or 24 h, FIG. 6C
# Source text: as §1
# FIG. 6 is a comparison of the HDAC inhibitory activities of 1, 3, 6, 36 or 39 as assessed by their effects on acetylation of alpha-tubulin. In A, SCC4 cells were incubated with vehicle or compound 1 (10^−6M), 3 (15 nM), 6 (10^−6M) and 36 (10^−6M), as indicated for 6 h and protein extracts were probed for total α-tubulin (Tub.) or acetylated α-tubulin (AcTub.) by Western blotting. Blots for acetylated alpha-tubulin and total alpha-tubulin are shown. In B, SCC4 cells were incubated with vehicle or compound 3 (15 nM), 6 (10^−6M) or 36 (10^−6M) as indicated for 6 h or 24 h and protein extracts were probed for acetylated α-tubulin (AcTub.) by Western blotting. In C, SCC4 cells were incubated with vehicle or compounds 3 (15 nM), 36 (10^−6 or 10^−7M) or 39 (10^−6 or 10^−7M) as indicated for 6 h or 24 h and protein extracts were probed for total α-tubulin (tub.) or acetylated α-tubulin (AcTub.) by Western blotting.
# as §2
# SCC4 cells were incubated with vehicle or compound as indicated for 6 h and cytoplasmic protein extracts were probed by Western blotting using a specific antibody for acetylated α-tubulin.
# [3] = tested on: SCC25 cells; details: cited from earlier work
# [4] = tested on: SCC25 cells; experiment: Antiproliferative activity in SCC25 cells; format: cell-based; details: 1 at 1 nM or 100 nM; 3 15 nM; combination 3 with 100 nM 1; FIG. 7B
# Source text: FIG. 7 is an illustration of the antiproliferative activities of 1 and 3, individually or in combination, in SCC4 cells (A) or in SCC25 cells (B) at the concentrations indicated.
# [5] = tested on: SCC4 cells; details: cited from earlier work
# [6] = tested on: SCC4 cells; experiment: Protein acetylation in nuclear and cytoplasmic extracts, Western blot with anti-acetyllysine antibody; format: cell-based, human; details: 6 h
# Source text: as §1, §2
# [7] = tested on: SCC4 cells; experiment: Antiproliferative activity in SCC4 cells
# Description: Tissue culture media was changed daily and fresh 1, 6 or vehicle were added.
# [8] = tested on: SCC4 cells; experiment: Acidic β-galactosidase activity (marker of autophagy), X-Gal staining and 620 nm measurement; format: cell-based, human; details: for acidic β-galactosidase staining (X-Gal, pH 4.0), cytochemical: qualitative, FIG. 10A
# Source text: FIG. 10 is an illustration of the effects of 1, 3, 1+3 and 6 on the induction of acidic β-galactosidase activity, a marker of autophagy (A); FIG. 10 is an illustration of the effects 1, 3, 1+3 and 6 on the levels of β-galactosidase expression as obtained by measuring the indigo cleavage product of X-Gal at 620 nm (B).
# Since it was observed that treatment with 1 could enhance cell death by autophagy (ref. 26), the effects of different treatments on the induction of acidic β-galactosidase activity, a marker of autophagy (FIG. 10A) was tested.
# [9] = tested on: SCC4 cells; experiment: Cell cycle distribution by FACS analysis; format: cell-based, human; details: 100 nM 1, or 100 nM 1 and 15 nM 3; 72 h
# Description: FIG. 11 is an illustration of the results obtained by fluorescence-activated cell sorting (FACS) analysis on the distribution of SCC4 cells in the cell cycle following treatment with vehicle (−), 1, or 1 and 3 together at the concentrations indicated.
# The combined effects of 1 and 3 on the distribution of SCC4 cells in the cell cycle were assessed by FACS analysis (FIG. 11). Cells were treated with vehicle, 100 nM 1, or a combination of 100 nM 1 and 15 nM 3 for 72 h, as indicated.
# [10] = tested on: SCC4 cells; experiment: Immunocytochemical and morphological analysis (mitotic catastrophe); format: cell-based, human
# Source text: FIG. 12 is an illustration of the immunocytochemical analysis of the effects of 1, 3, or 1 and 3 combined on SCC4 cells (A). […] Both phenotypes are characteristics of mitotic catastrophe. The lower panels (B) show cytoplasmic bridges between SCC4 cells treated with 1 and 3, consistent with the formation of the tubulin bridges seen above in A.
# Assembly into microtubules is regulated by acetylation. […] Previous studies have shown that microtubule stabilizing agents can induce mitotic catastrophe (ref. 30). […] The formation of intercellular microtubular structures was consistent with observations in the light microscope of numerous intercellular bridges in cells treated with both 1 and 3 (FIG. 12B, arrows), but not in other treatment groups (not shown).
# [11] = target: T1, human VDR (Homo sapiens, UniProt P11473); experiment: Reporter gene assay (VDRE-luciferase) in transiently transfected COS7 cells; format: cell-based
# T1 construct: expressed in transfected cells; host or cells: COS7
# T1 sequence (P11473 1-427): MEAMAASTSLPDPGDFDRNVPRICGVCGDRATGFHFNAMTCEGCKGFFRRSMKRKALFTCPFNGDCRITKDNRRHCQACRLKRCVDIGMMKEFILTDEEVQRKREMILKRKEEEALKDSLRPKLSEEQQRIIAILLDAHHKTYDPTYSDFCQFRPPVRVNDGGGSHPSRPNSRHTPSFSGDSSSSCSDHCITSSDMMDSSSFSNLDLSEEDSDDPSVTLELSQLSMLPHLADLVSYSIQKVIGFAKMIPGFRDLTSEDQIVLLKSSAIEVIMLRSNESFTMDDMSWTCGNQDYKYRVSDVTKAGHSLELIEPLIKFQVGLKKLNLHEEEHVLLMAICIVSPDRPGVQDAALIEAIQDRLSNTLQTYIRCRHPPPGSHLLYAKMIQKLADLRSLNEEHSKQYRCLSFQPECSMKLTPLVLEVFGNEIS
# Description: FIG. 2 is an illustration of the vitamin D receptor agonist activity of 6 using a reporter gene assay in transiently transfected COS7 cells.
# Hybrid molecule 6 was tested for calcitriol agonist activity using a reporter gene assay under standard conditions.^25,26 COS7 cells were transiently co-transfected with a plasmid expression vector for the human VDR, a plasmid vector expressing bacterial β-galactosidase from a constitutively active promoter (as an internal control for transfection efficiency), and a vector containing a luciferase reporter gene, under control of a previously described synthetic promoter composed of three high affinity VDREs (Vitamin D Response Elements) placed immediately upstream of a truncated promoter region from the herpes simplex virus thymidine kinase gene.^25 Cells were left overnight in the presence of DNA and transfection reagent (lipofectamine). The media were changed and cells were incubated in fresh media containing either vehicle (DMSO), 1 (100 nM), 3 (15 nM), 1 and 3 combined (100 nM/15 nM) or 6 (100 nM), and incubated a further 36 h.
# [12] = tested on: Du145; experiment: Antiproliferative activity in Du145 prostate cancer cells; format: cell-based; details: Du145, data not shown
# [13] = tested on: HDAC; experiment: Colorimetric HDAC assay with nuclear extracts of SCC4 cells; format: biochemical, human
# Description: FIG. 5 is a comparison of the capability of 3 and 6 (20 nM and 200 nM) in blocking deacetylation of a substrate that absorbs at 405 nm in its deacetylated form.
# Hybrid molecule 6 was tested for HDAC inhibitory activity using a colorimetric assay as illustrated in FIG. 5. Nuclear extracts of SCC4 cells were incubated with vehicle, 3 or 6 in the presence of substrate for 60 min at 37° C. Following incubation with developer (1 min.), the absorbance was measured at 405 nm.
# [14] = tested on: MCF-7 breast cancer cells; experiment: Cell viability, trypan blue dye exclusion assay; format: cell-based; details: 24 h; 6 at 10^−7 or 10^−6M versus 1 at 10^−6M or 1 and 3; FIG. 9A
# Description: (§3) FIG. 9 is an illustration of the effects of 1, 3, 1+3, 6 and 36 administered at the concentrations indicated on cell viability in two models. The viability of MCF-7 breast cancer cells was monitored after 24 h of incubation using a trypan blue dye exclusion assay (A).
# (§4) The effect of 1, 3, 1+3, 6 and 36 on cell viability was tested in two models. The viability of MCF-7 breast cancer cells was monitored after 24 h of incubation using a trypan blue dye exclusion assay (FIG. 9A). […] The effects of 100 nM 1, 15 nM 3 (TSA), 1 and 3 combined (100 nM/15 nM) and 100 nM 6 (hybrid molecule) on cell viability were tested by screening for induction of markers of apoptotic cell death. Annexin V staining was screened by FACS analysis as in Tavera-Mendoza et al.^26 While all treatments induced modest increases in annexin V staining, apoptosis could be excluded as the major cause of cell death (FIG. 9B).
# [15] = tested on: PC3; experiment: Antiproliferative activity in PC3 prostate cancer cells; format: cell-based; details: PC3, data not shown
# [16] = tested on: SCC4 cells; experiment: Annexin V staining by FACS (apoptotic cell death); format: cell-based, human; details: after pretreatment with UV light
# Description: as §3, §4
smiles,measurement,setting,value
"C=C1/C(=C\C=C2/CCC[C@@]3(C)C2CCC3[C@H](C)CCCC(C)(C)O)C[C@@H](O)C[C@@H]1O (stereo partly drawn) [compound 1, 1α,25-Dihydroxyvitamin D3]",histone H4 acetylation,[1],little effect
same,acetylation of α-tubulin,"[2]; cytoplasmic fractions, FIG. 4C",no effect
same,cell cycle arrest,[3],G0/G1 arrest
same,SCC25 proliferation / sensitivity,[4],relatively more sensitive
same,resistance of SCC4 to antiproliferative effects,[5],resistant
same,levels of a product of ~70 kDa,[6]; cytoplasmic extracts,modestly but consistently enhanced
same,acetylation of low molecular weight nuclear proteins,[6]; nuclear extracts,no effect
same,SCC4 proliferation,"[7]; 1 nM or 100 nM 1, alone or with 15 nM 3, FIG. 7A",modest effects
same,"acidic β-galactosidase staining (X-Gal, pH 4.0), cytochemical",[8],generally enhanced
same,proportion of cells in G1,[9],augmented
same,proportion of cells in G2/M,[9],augmented
same,proportion of cells in S phase,[9],substantially diminished
same,cell morphology,[10]; FIG. 12,did not differ from control cells
same,induction of mitotic catastrophe,[10]; SCC4 cells,not 1 or 3 alone
"C=C1/C(=C\C=C2/CCC[C@@]3(C)C2CCC3[C@H](C)/C=C/C=C/C(O)(CC)CC)C[C@@H](O)C[C@@H]1O (stereo partly shown) [compound 4, EB1089]",expression from the internal control plasmid (β-galactosidase),[11]; COS7 cells,modestly enhanced expression
"CC(/C=C/C(=O)NO)=C\[C@@H](C)[C@H]1CC[C@H]2/C(=C/C=C3C[C@@H](O)C[C@H](O)C3)CCC[C@]12C [compound 6, (2E,4E,6R)-6-[(1R,3R,7E,17β)-1,3-dihydroxy-9,10secoestra-5,7-dien-17-yl]-N-hydroxy-4-methylhepta-2,4-dienamide]",tubulin acetylation,"[2]; 1 μM, 6 h, FIG. 6A",marked tubulin acetylation
same,tubulin acetylation,"[2]; after 24 h, FIG. 6B",remains elevated
same,reporter gene activity (calcitriol agonist activity),"[11]; COS7, 36 h, 1 100 nM, 3 15 nM, 6 100 nM, not normalized",essentially identical to that of 1
same,antiproliferative activity,[12],similar
same,fold less potent than TSA (3),[13]; HDAC inhibition,about 10 fold
same,"inhibiting HDAC activity, compared with 3","[13]; equimolar concentrations (20 nM), 60 min at 37° C.",less effective
same,inhibition of SCC4 proliferation,"[7]; 96 h, media and compound changed daily, FIG. 8A",greater efficacy than 1
same,levels of autophagy,[8]; cytochemical and quantitative analysis,elevated levels of autophagy
same,increase in β-galactosidase expression versus 1 or 1+3,"[8]; indigo cleavage product of X-Gal at 620 nm, FIG. 10B",~30%
same,"acidic β-galactosidase staining (X-Gal, pH 4.0), cytochemical",[8],higher percentage of cells that stained intensely
same,cell death (viability),[14],markedly more cell death
same,antiproliferative activity,[15],similar
same,"annexin V staining versus 3, 1 or 1+3",[16],substantially higher levels of apoptosis
C[C@H](CCCC(=O)NO)[C@H]1CC[C@H]2/C(=C/C=C3C[C@@H](O)C[C@H](O)C3)CCC[C@]12C [compound 36],levels of acetylated alpha-tubulin normalized for total alpha-tubulin,[2],observed only in cells treated with 3
same,tubulin acetylation,"[2]; 10^−6 M, 6 or 24 h, FIG. 6B",no effect
C[C@H](CCCCC(=O)NO)[C@H]1CC[C@H]2/C(=C/C=C3C[C@@H](O)C[C@H](O)C3)CCC[C@]12C [compound 39],levels of acetylated alpha-tubulin normalized for total alpha-tubulin,[2],observed only in cells treated with 3
